Data taken from EP0241837B1, “Stable injectable antiemetic compositions” (Bristol-Myers Squibb Company, priority 1986, dated 1987).
Where two headings read alike, the source gives them in different places.

Assay: Stability of Compound Ia (5 mg/ml) in aqueous solutions on storage at 56°C
Format: physicochemical
Conditions: for % Remaining (8 weeks): 80640 min; for remaining at 168 h: 1 week; for remaining at 336 h: 2 weeks
Method: The compounds of Formula I in aqueous, isotonic (isotonicity adjusted with sodium chloride and/or dextrose) and buffered ([…], pH 5.7 and 6.5) formulations containing the equivalent of 5 mg of free base of a compound of Formula I per ml have been found unsuitable for long term shelf life. Typical isotonic and buffered formulations lost 33% and 40%, respectively, of their potency following storage for eight weeks at 56°C. […] Tables 1 and 2 give the results of stability tests on the compound of Formula Ia in water and in isotonic saline, and in citrate buffers, respectively.
Tables 3 and 4, below, provide stability data for some of the stable injectable formulations of the present invention.

[1] = 0.01m citrate buffer, pH 5.7, 5 mg/ml in 0.01M citrate buffer pH 5.7, 56°C, average of duplicate samples, read-out: % Remaining(a) (pH 5.7)
[2] = 0.01m citrate buffer, pH 6.5, 5 mg/ml in 0.01M citrate buffer pH 6.5, 56°C, average of duplicate samples, read-out: % Remaining(a) (pH 6.5)
[3] = isotonic saline, 5mg/ml in isotonic saline, 56°C, average of duplicate samples, read-out: % Remaining(a) (Isotonic Saline)
[4] = water, 5mg/ml in water, 56°C, average of duplicate samples, read-out: % Remaining(a) (Water)

% Remaining(a) (pH 5.7) (5 mg/ml in 0.01M citrate buffer pH 5.7, 56°C, Initial, average of duplicate samples): 100.0%
% Remaining(a) (pH 6.5) (5 mg/ml in 0.01M citrate buffer pH 6.5, 56°C, Initial, average of duplicate samples): 100.0%
% Remaining(a) (Isotonic Saline) (5mg/ml in isotonic saline, 56°C, Initial, average of duplicate samples): 100.0%
% Remaining(a) (Water) (5mg/ml in water, 56°C, Initial, average of duplicate samples): 100.0%
% Remaining (8 weeks) (5mg/ml, Ethanol/Water (v/v) 0/100, calculated dielectric constant 78.5, 56°C, 8 weeks): 89.4%
% Remaining (8 weeks) (5mg/ml, Ethanol/Water (v/v) 25/75, calculated dielectric constant 64.9, 56°C, 8 weeks): 97.5%
% Remaining (8 weeks) (5mg/ml, Ethanol/Water (v/v) 50/50, calculated dielectric constant 51.4, 56°C, 8 weeks): 99.1%
remaining at 168 h [1]: 94.8%
remaining at 336 h [1]: 87.8%
remaining at 672 h (0.01m citrate buffer, pH 5.7, 5 mg/ml in 0.01M citrate buffer pH 5.7, 56°C, 4 weeks, average of duplicate samples, read-out: % Remaining(a) (pH 5.7)): 77.2%
remaining at 1344 h (0.01m citrate buffer, pH 5.7, 5 mg/ml in 0.01M citrate buffer pH 5.7, 56°C, 8 weeks, average of duplicate samples, read-out: % Remaining(a) (pH 5.7)): 58.9%
remaining at 168 h [2]: 93.6%
remaining at 336 h [2]: 87.9%
remaining at 672 h (0.01m citrate buffer, pH 6.5, 5 mg/ml in 0.01M citrate buffer pH 6.5, 56°C, 4 weeks, average of duplicate samples, read-out: % Remaining(a) (pH 6.5)): 77.5%
remaining at 1344 h (0.01m citrate buffer, pH 6.5, 5 mg/ml in 0.01M citrate buffer pH 6.5, 56°C, 8 weeks, average of duplicate samples, read-out: % Remaining(a) (pH 6.5)): 60.3%
remaining at 672 h (5% (w/v) glycerol, 5mg/ml, solvent 5% (w/v) Glycerol, calculated dielectric constant 76.3, 56°C, 4 weeks, read-out: % Remaining (4 weeks)): 95.1%
remaining at 1344 h (5% (w/v) glycerol, 5mg/ml, solvent 5% (w/v) Glycerol, calculated dielectric constant 76.3, 56°C, 8 weeks, read-out: %Remaining (8 weeks)): 90.9%
remaining at 672 h (15% (w/v) glycerol, 5mg/ml, solvent 15% (w/v) Glycerol, calculated dielectric constant 71.8, 56°C, 4 weeks, read-out: % Remaining (4 weeks)): 96.5%
remaining at 1344 h (15% (w/v) glycerol, 5mg/ml, solvent 15% (w/v) Glycerol, calculated dielectric constant 71.8, 56°C, 8 weeks, read-out: %Remaining (8 weeks)): 94.2%
remaining at 672 h (25% (w/v) glycerol, 5mg/ml, solvent 25% (w/v) Glycerol, calculated dielectric constant 71.4, 56°C, 4 weeks, read-out: % Remaining (4 weeks)): 96.8%
remaining at 1344 h (25% (w/v) glycerol, 5mg/ml, solvent 25% (w/v) Glycerol, calculated dielectric constant 71.4, 56°C, 8 weeks, read-out: %Remaining (8 weeks)): 95.3%
remaining at 672 h (25% (w/v) propylene glycol, 5mg/ml, solvent 25% (w/v) Propylene Glycol, calculated dielectric constant 67.3, 56°C, 4 weeks, read-out: % Remaining (4 weeks)): 97.7%
remaining at 1344 h (25% (w/v) propylene glycol, 5mg/ml, solvent 25% (w/v) Propylene Glycol, calculated dielectric constant 67.3, 56°C, 8 weeks, read-out: %Remaining (8 weeks)): 96.8%
remaining at 672 h (ethanol/water 0/100, 5mg/ml, Ethanol/Water (v/v) 0/100, calculated dielectric constant 78.5, 56°C, 4 weeks, read-out: % Remaining (4 weeks)): 94.9%
remaining at 672 h (ethanol/water 25/75, 5mg/ml, Ethanol/Water (v/v) 25/75, calculated dielectric constant 64.9, 56°C, 4 weeks, read-out: % Remaining (4 weeks)): 98.7%
remaining at 672 h (ethanol/water 50/50, 5mg/ml, Ethanol/Water (v/v) 50/50, calculated dielectric constant 51.4, 56°C, 4 weeks, read-out: % Remaining (4 weeks)): 99.5%
remaining at 672 h (ethanol/water 75/25, 5mg/ml, Ethanol/Water (v/v) 75/25, calculated dielectric constant 37.8, 56°C, 4 weeks, read-out: % Remaining (4 weeks)): 99.6%
remaining at 168 h [3]: 96%
remaining at 336 h [3]: 91.6%
remaining at 672 h (isotonic saline, 5mg/ml in isotonic saline, 56°C, 4 weeks, average of duplicate samples, read-out: % Remaining(a) (Isotonic Saline)): 83.5%
remaining at 1344 h (isotonic saline, 5mg/ml in isotonic saline, 56°C, 8 weeks, average of duplicate samples, read-out: % Remaining(a) (Isotonic Saline)): 66.9%
remaining at 168 h [4]: 97.4%
remaining at 336 h [4]: 95.5%
remaining at 672 h (water, 5mg/ml in water, 56°C, 4 weeks, average of duplicate samples, read-out: % Remaining(a) (Water)): 90.8%
remaining at 1344 h (water, 5mg/ml in water, 56°C, 8 weeks, average of duplicate samples, read-out: % Remaining(a) (Water)): 80.5%
remaining at 672 h (water, 5mg/ml, solvent Water, calculated dielectric constant 78.5, 56°C, 4 weeks (Table 4), read-out: % Remaining (4 weeks)): 94.9%
remaining at 1344 h (water, 5mg/ml, solvent Water, calculated dielectric constant 78.5, 56°C, 8 weeks (Table 4), read-out: %Remaining (8 weeks)): 88.1%
Structure (SMILES): CCN(CC)CCNC(=O)c1cc(Cl)c(N)cc1OC(C)C(C)=O (stereo not shown) [Compound Ia, 4-amino-2-(2-butanon-3-yl)-oxy-5-chloro-N-[2-(diethylamino)ethyl]benzamide]
